Experimental data as given in patent publication US11555031B2, “Compounds and methods for regulating insulin secretion” (The Broad Institute, Inc., priority 2017, dated 2023).
“Also recorded” adds a separate entry of the source.

What was measured:
alpha-TC-1-6 = assay: Luminescent glucagon secretion assay in alpha-cell line; type: cell-based; settings: compared with DMSO negative control
Protocol: FIG. 10 depicts the quantification of α-cell secretory activity in cells treated with DMSO, KCl, or Compound 8, using a luminescent assay for glucagon secretion.
To investigate the cell-type specificity of the compound, and to exclude the possibility that Compound 8 acts as a generic secretagogue, the compound was tested on secretion from a rodent alpha-cell line, “alpha-TC-1-6,” using a luciferase reporter for glucagon secretion that mirrors the insulin secretion assay (FIG. 10).

Microsome t1/2, rat = type: in vitro ADME; settings: Rat (SD) microsomes
Protocol: (§1) The pharmacokinetic activity profile of Compound 8 was assessed by various standard in vitro measurements. Measurements were performed on human, mouse (CD-1) and rat (SD) microsomes to determine the t1/2, the plasma protein binding (“PPB”) and the plasma stability (“PS”).

C57B6/J mice = assay: In vivo efficacy, glucose tolerance test; set-up: species or system mouse; settings: 2 mg/kg tail vein injection, compared to control (vehicle)
Protocol: Three-month-old male C57B6/J mice of body weight ranging from 20 to 25 g were housed in plastic polycarbonate cages. The animals were maintained at 25° C. with a 12-hour dark, 12-hour light schedule with food and water available ad libitum.
After two weeks of adaptation, the animals were randomly divided into two treatment groups (vehicle and Compound 8 in vehicle) with 5 mice per group. Mice were fasted for 16 hours (overnight) and basal blood glucose level was measured by tail vein nick using the AlphaTRAK 2 glucometer. Animals were given Compound 8 (2 mg/kg body weight) in vehicle or vehicle alone (7.5% NMP, 7.5% Solutol HS-15, 85% normal saline) by tail vein injection. Glucose tolerance tests (GTT) were performed 10 minutes after injection. Animals were given glucose at a dose of 1 g/kg body weight by intraperitoneal injection. Blood glucose was measured using the glucometer immediately before glucose injection, and at 15, 30, 60, and 120 minutes after injection (FIGS. 19A and 19C). At the 0, 15, and 30 minute time points, blood samples for insulin measurements were collected into EDTA-coated tubes and centrifuged at 9000 rpm to separate plasma, which was then stored at −80° C. until analysis. Insulin levels in plasma were analyzed using the ultra-sensitive mouse insulin ELISA kit (Crystal Chem) (FIGS. 19B and 19D). […]

Microsome t1/2, human = type: in vitro ADME; settings: Human microsomes
Protocol: as §1

dissociated human islets = assay: Insulin secretion from dissociated human islets, insulin ELISA; type: cell-based
Protocol: Forskolin is included as a positive control.
Human islets were obtained through the Integrated Islet Distribution Program. Islets were maintained and dissociated in 96-well format as described (Walpita et al., J Biomol Screen 17: 509-518 2012). To test compounds for their effects on insulin secretion, the dissociated islets were washed gently in KRB and preincubated for 1 hr at 37° C. in KRB with 2.8 mM glucose. The cells were then washed twice with zero-glucose KRB and placed in 100 μl of fresh KRB with varied glucose concentrations plus compounds. After a 1 hr incubation at 37° C., the supernatant was removed, and insulin concentration was measured by ELISA (Mercodia) according to the manufacturer's instructions.

pancreatic glucokinase = target: T1, pancreatic glucokinase (Homo sapiens, UniProt P35557); assay: Glucokinase activation assay (ATP level); type: biochemical; settings: ATP level readout; GK-A positive control
T1 sequence (P35557 1-465): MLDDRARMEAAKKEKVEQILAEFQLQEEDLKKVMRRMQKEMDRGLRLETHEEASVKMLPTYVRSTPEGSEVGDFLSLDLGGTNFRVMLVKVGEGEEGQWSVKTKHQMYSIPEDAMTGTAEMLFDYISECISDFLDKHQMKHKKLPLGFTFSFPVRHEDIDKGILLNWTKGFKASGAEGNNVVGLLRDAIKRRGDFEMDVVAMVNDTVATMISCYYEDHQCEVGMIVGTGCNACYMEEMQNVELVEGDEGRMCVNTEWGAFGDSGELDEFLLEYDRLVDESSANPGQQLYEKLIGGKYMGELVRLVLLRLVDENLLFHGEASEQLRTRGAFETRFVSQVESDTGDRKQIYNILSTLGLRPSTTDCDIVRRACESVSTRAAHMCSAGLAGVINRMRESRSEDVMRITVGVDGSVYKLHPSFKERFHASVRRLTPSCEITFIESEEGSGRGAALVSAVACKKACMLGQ
Text: FIG. 11 depicts the lack of effect of Compound 8 on glucokinase activity in cells treated with the indicated compounds. The assay is based on the measurement of ATP level. In presence of GK we observe a reduction of level of ATP with respect to the negative control (DMSO).
To rule out the possibility of Compound 8 acting as a glucokinase agonist, another well-established mechanism of augmenting insulin secretion, the compound was subjected to a glucokinase activation assay (FIG. 11).

[1] = system: Mouse MING insulinoma cells; assay: Calcium influx assay (Fluo-4, FLIPR Tetra); type: cell-based
Protocol: Mouse MING insulinoma cells were cultured in DMEM medium supplemented with 10% FBS, 100 U/mL penicillin, 100 μg/mL streptomycin, and 55 μM β-mercaptoethanol. Two days prior to the experiment, cells were seeded in 384-well clear-bottom microplates at 17,500 cells/well. For calcium imaging, microplates were washed three times with Hanks' Balanced Salt Solution (HBSS, containing Ca^2+/Mg^2+) using the CyBio Well vario plate washer. Cells were loaded with 2 μM of the calcium indicator Fluo-4 for 1 hour at 37° C. in Krebs-Ringer buffer (KRB) with 3 g/L glucose. After dye loading, the cells were washed again with HBSS and incubated in KRB with 0.5 g/L glucose for 30 minutes at 37° C. (glucose starvation conditions). After glucose starvation, microplates were transferred to FLIPR Tetra, where an automated 384-well dispensing unit added glucose (glucose stimulation conditions) together with Compound 8. Positive control measurements (“+CNT”) were performed in wells with ionomycin to prompt calcium influx without the presence of glucose. Negative control measurements (“−CNT”) were also performed in wells with Compound 8 present in and without glucose. All wells were read simultaneously at 1 Hz intervals. FIG. 20 illustrates the fold increase of measured calcium over baseline measurements performed in the absence of glucose. […] Without wishing to be bound by theory, it is believed that insulin secretagogues acts between KATP channels stimulated by glucose, and the calcium channels that induce insulin secretion.

Plasma stability, rat = type: in vitro ADME
Protocol: (§2) Measurements were performed on human, mouse (CD-1) and rat (SD) microsomes to determine the t1/2, the plasma protein binding (“PPB”) and the plasma stability (“PS”).

Plasma stability, mouse = type: in vitro ADME
Protocol: as §2

half-life (Microsome t1/2, rat): 3.62 h
half-life (Microsome t1/2, human): 19.3 h
PS (Plasma stability, rat): 97.5 % remaining
PS (Plasma stability, mouse): 96.0 % remaining
Compound: Cc1cccc(NC(=O)c2ccc(OCc3c(C)noc3C)cc2)c1C [Compound 8]
alpha-cell secretory activity (luciferase reporter for glucagon secretion) (alpha-TC-1-6): not to augment luciferase secretion; also recorded: insignificant change from DMSO negative control
glucose concentration area under the curve (AUC) (C57B6/J mice; GTT 1 g/kg glucose i.p.): decreased
insulinogenic index (C57B6/J mice; GTT): increase
insulin secretion, human islets from nondiabetic donors (dissociated human islets; normal donors): significant increase in glucose-dependent insulin secretion; also recorded: dose-dependent effect
insulin secretion, human islets from type 2 diabetic donors (dissociated human islets; type 2 diabetes donors): significant increase in glucose-dependent insulin secretion; also recorded: increases insulin secretion
glucokinase activation (pancreatic glucokinase): did not show any significant activation effect; also recorded: no change in assay signal
calcium influx in β-cells in the presence of glucose ([1]; glucose stimulation conditions (16.7 mM glucose), 1 μM, 10 μM): does promote calcium influx
dose dependence of calcium influx in beta cells ([1]; only in the presence of glucose): dose dependent response
calcium influx in β-cells in the absence of glucose ([1]; without glucose): does not invoke a calcium influx
